According to PMC9021288 (Nature Communications, 2022):
Where “and” joins values, the source holds several entries; their conditions need not be identical. Equal values may be shown once. Entries after “also recorded” stand apart in the source; their conditions may differ. Read-outs that look alike come from different tables or passages of the source.

What was measured:
[1] = UV scan for phototoxicity; assay type: physicochemical
[2] = system: P. falciparum T648M / T627A AcAS mutant gametocytes; assay type: cell-based, Plasmodium falciparum
Description: Gametocyte viability assays on NF54-HGL parasites were performed using an adapted high-throughput protocol as previously described[15],[64]. In short, asexual blood-stage parasite cultures were set up at 1% parasitemia in a semi-automated shaker system at 5% hematocrit. From day four until day eight or nine, parasites were treated with 50 mM N-acetyl glucosamine to eliminate all asexual blood-stage parasites. Subsequently, gametocytes were isolated by a Percoll density gradient centrifugation. At day 11, gametocytes were seeded (5,000 per well) in 30 µl in white 384-well plates containing 30 µl of compounds diluted in medium (0.1% DMSO). After a 72-h incubation, 30 µl of ONE-Glo reagent (Promega) was added according to manufacturer’s protocol and luminescence was quantified using the BioTek Synergy 2 Plate reader. Values were normalized to DMSO- and epoxomicin or dihydroartemisinin-treated controls.

[3] = Crystal screening (XRPD); assay type: physicochemical; conditions: 36 conditions
Description: Crystal screening for each further characterized pantothenamide was performed by a commercial service (Crystal Pharmatech Co., Ltd.) under 36 conditions using a variety of crystallization methods, including liquid vapor diffusion, slow evaporation, slurry conversion and salt/co-crystal formation and solvents. X-ray power diffraction (XRPD) patterns were collected by Bruker X-ray powder diffractometers.

[4] = system: P. falciparum NF54 asexual blood-stage parasites; experiment: 72-h asexual blood-stage replication assay (SYBR Green); assay type: cell-based, Plasmodium falciparum; set-up: key to asexual blood stages growth, dose-response: % growth; DMSO control = 100%, DHA/epoxomicin-treated = no growth
[5] = system: cryopreserved human primary hepatocytes; experiment: Human hepatocyte clearance (relay assay); conditions: for % Remaining: 10 µM, single replicates
From the text: Briefly, cryopreserved human primary hepatocytes were thawed and cultured as described above.

[6] = system: P. falciparum NF54-HGL, dT648M, cT648M, cT627A asexual blood stages; experiment: Asexual drug-sensitivity of AcAS mutant parasites; assay type: cell-based, Plasmodium falciparum
Description: Replication assays were performed using a SYBR Green method as described previously. Briefly, asynchronous parasites were diluted to 0.83% parasitemia, 3% hematocrit in 30 µl medium, and added to 30 µl of diluted compounds in medium (0.1% DMSO final concentration) in black 384-wells plates. After a 72-h incubation, 30 µl of SYBR Green diluted in lysis buffer was added according to the manufacturer’s protocol (Life Technologies). Fluorescence intensity was measured on a BioTek Synergy 2 Plate Reader after 1-h incubation and was normalized to a DMSO control (100% growth) and DHA- or epoxomicin-treatment (no growth). […] Parasite survival was assessed by flow cytometry on an Accuri C6 (BD Biosciences) with BD C6 Plus software using SYBR Green and MitoTracker Deep Red FM (Life Technologies) as nuclear stain and vital dye, respectively, and data were analyzed using FlowJo (10.5.0). […] Luminescence was measured after 72 h using the Renilla-Glo(R) Luciferase Assay System (Promega E2750) and the GlomAX® Discover Multimode Microplate Reader (Promega). The luminescence values were normalized to DMSO vehicle (100% growth) and 200 nM chloroquine-treated (no growth) samples as controls.
The mutation found in selected drug-resistant parasites was verified by introducing the point mutations in AcAS (T648M and T627A) in NF54-HGL parasites using a CRISPR-Cas9 system as described previously. The oligonucleotides for the guide RNA and the donor template were cloned into a pDC2-based plasmid containing a Cas9 and guide cassette, using the BbsI and EcoRI/AatII restriction sites, respectively. Donor DNA was amplified by (overlap-extension) PCR amplification from genomic P. falciparum DNA and oligonucleotides for the guide RNAs were ordered (Sigma-Aldrich). The correct sequence and integration of both inserts were confirmed by Sanger Sequencing.

C[C@@H](CNC(=O)[C@H](O)C(C)(C)CO)NC(=O)c1cc(F)c(F)cc1F [MMV693183]
UV absorbance [1]: No absorbance >290 nm; also recorded: no detectable absorption above 290 nm | IC50 shift sexual ([2]; CRISPR cT648M): > 50 × | IC50 shift gametocytes ([2]; selected resistant (dT648M) gametocytes): > 50 × | Crystalline [3]: Yes | in vitro-determined IC99 [4]: 36.1 nM | asexual blood stages growth, dose-response ([4]; Log concentration (M) -8.5): 38.5 and 30.4 and 47.25 and 30.7 | asexual blood stages growth, dose-response ([4]; Log concentration (M) -9): 74.05 and 74.55 and 77.05 and 67.5 | asexual blood stages growth, dose-response ([4]; Log concentration (M) -9.5): 92.6 and 74.65 and 93.65 and 69.75 | asexual blood stages growth, dose-response ([4]; Log concentration (M) -10): 93.45 and 77.05 and 101.75 and 92 | IC50 ([4]; asexual blood stages NF54 parasites, read-out: IC50): 2.8 nM | IC50 ([4]; per replicate experiment, read-out: IC50, asexual blood stages): 2.37 nM and 2.81 nM and 2.66 nM and 2.15 nM | % Remaining ([5]; hepatocyte donor HC02, 0 h): 100.0% | % Remaining ([5]; hepatocyte donor HC02, 6 h): 77.4% and 91.4% | % Remaining ([5]; hepatocyte donor HC02, 24 h): 90.3% and 124.4% | % Remaining ([5]; hepatocyte donor HC02, 48 h): 87.4% and 110.8% | % Remaining ([5]; hepatocyte donor HC02, 72 h): 63.9% and 86.8% | % Remaining ([5]; hepatocyte donor HC06, 0 h): 100.0% | % Remaining ([5]; hepatocyte donor HC06, 3 h): 77.2% and 88.0% | % Remaining ([5]; hepatocyte donor HC06, 6 h): 79.3% and 91.3% | % Remaining ([5]; hepatocyte donor HC06, 24 h): 87.0% and 115.0% | % Remaining ([5]; hepatocyte donor HC06, 48 h): 64.3% and 81.2% | % Remaining ([5]; hepatocyte donor HC06, 72 h): 61.0% and 75.3% | % Remaining ([5]; hepatocyte donor HC425, 0 h): 100.0% | % Remaining ([5]; hepatocyte donor HC425, 6 h): 79.3% and 88.2% | % Remaining ([5]; hepatocyte donor HC425, 24 h): 68.0% and 93.2% | % Remaining ([5]; hepatocyte donor HC425, 48 h): 73.6% and 94.3% | % Remaining ([5]; hepatocyte donor HC425, 72 h): 68.2% and 91.6% | % Remaining ([5]; hepatocyte donor HC1010, 0 h): 100.0% | % Remaining ([5]; hepatocyte donor HC1010, 1 h): 120.3% and 86.1% and 104.1% and 69.6% | % Remaining ([5]; hepatocyte donor HC1010, 6 h): 88.7% and 55.7% and 88.0% and 45.9% | % Remaining ([5]; hepatocyte donor HC1010, 24 h): 90.4% and 62.9% and 77.2% and 55.3% | % Remaining ([5]; hepatocyte donor HC1010, 48 h): 70.7% and 54.4% and 57.7% and 44.1% | % Remaining ([5]; hepatocyte donor HC1010, 72 h): 34.1% and 43.9% and 31.3% and 51.9% | CLint ([5]; donor HC02): 0.082 µL/min/million cells | CLint ([5]; donor HC06): 0.142 µL/min/million cells | CLint ([5]; donor HC425): 0.0695 µL/min/million cells | Human hepatocyte CLint ([5]; human, hepatocytes): 0.4 µl/min/10^6 cells | human hepatocyte clearance, four donors ([5]; range of donors): 0.07 to 0.4 µl/min/10^6 cells | sensitivity of T627A AcAS mutant [6]: also resistant to MMV693183 | IC50 shift asexual ([6]; CRISPR cT648M): 49 × | IC50 shift ([6]; NF54 selected at 7 nM): 77 x | IC50 shift ([6]; selected resistant parasites vs parent, asexual growth assay): 13-77 ×
